Test results as given in patent publication US20250066347A1, “SUBSTITUTED THIAZOLIDINEDIONE DERIVATIVE COMPOUND, AND PHARMACEUTICAL COMPOSITION FOR PREVENTING OR TREATING CANCER, COMPRISING SAME” (MEDIFIC, INC., priority 2021, published 2025).
Like-named read-outs stand apart in the source and are kept apart here.

Columns and labels:
HOG-GSC cells = experiment: Comparison of cell viability in brain tumor stem cell (MTS assay); type: cell-based; conditions: 72 hours, DMSO control = 1, value below 0.5 = viability decreased by 50% or more
Procedure: HOG-GSC cells which are brain tumor stem cells were treated with 11 compounds at 10 μM and DMSO as a control group, and the number of surviving cells after 72 hours was evaluated by MTS assay.
HOG-GSC which is a brain tumor stem cell was seeded on a 96-well plate at 5000 cells per well, and was cultured in an incubator (ThermoFisher) at 37° C. and 5% CO2 for 24 hours for stabilization of cells. Thereafter, it was treated with 11 compounds of the present invention at […] each, and treated with the same volume of DMSO as a control group as the volume of each compound. After treatment with the compound of the present invention and the control group, cells were cultured in an incubator at 37° C. and 5% CO2 for 72 hours. Thereafter, since there were many living cells in each well, cell viability was quantified using a cell viability assay kit (LPS solution) of which the color becomes darker with an increase in the number of cells. After treatment with the cell viability assay solution, a reaction was performed in an incubator at 37° C. and 5% CO2 for 3 hours to perform coloration, absorbance at 450 nm was measured using a microplate reader (BioTek), and an absorbance intensity of the control group was set to 1 and the absorbance of cells treated with each compound was normalized and is shown in FIG. 2.

HOG-GSC = experiment: Cell viability analysis depending on the concentration of Compound 11; type: cell-based; conditions: 0.078-20 μM, 72 hours
Procedure: HOG-GSC which is a brain tumor stem cell was seeded on a 96-well plate at 5000 cells/well, treated with Compound 11 (Example 11) at concentrations of 20 μM, 10 μM, 5 μM, 2.5 μM, 1.25 μM, 0.625 μM, 0.312 μM, 0.156 μM, and 0.078 μM repeatedly 3 times after 24 hours, and treated with the same volume of DMSO as a control group repeatedly 3 times. After the treatment, cells were cultured for 72 hours in an incubator (ThermoFisher) at 37° C., 5% Co2. Thereafter, since there were many living cells in each well, the cell viability depending on the concentration of Compound 11 (Example 11) was compared using a cell viability assay kit (LPS solution) of which the color becomes darker with an increase in the number of cells. Further, absorbance at 450 nm was measured using a microplate reader (BioTek), and absorbance at each concentration was normalized based on the absorbance intensity of the control group of 1 and is shown in FIG. 4.

[1] = In vivo PK test, drug concentration in plasma after oral or intravenous administration; conditions: CRljOri:CD1(ICR), mouse, plasma
Procedure: • Experimental Drug: Compound 11 • Excipient: 10% DMSO, 75% PEG400, 15% saline 1.2. Experimental system • mouse, CRljOri:CD1(ICR), SPF 6 weeks old (7 weeks old at the time of administration) 1.3. Administration route • oral administration (PO), intravenous administration (IV) 1.4. Administration method and number of administration
After obtaining the mouse, the mouse was acclimatized for 5 days, and used in the experiment. An administration dose was 25 mg/kg by oral administration and 5 mg/kg by intravenous administration. A dosage for each individual was calculated based on the weight after fasting (on the day of administration), and the drug was orally administered once to an oral administration (PO) group using a disposable syringe (1 mL) with a zonde for oral administration attached, and intravenously administered to the tail vein of an intravenous administration (IV) group using a disposable syringe (1 mL).
About 0.3 mL of blood was collected from a jugular vein with a 1 mL syringe (25G) treated with 3.8% sodium citrate (about 30˜40 μl), placed in one microtube (QSP, 1.5 mL), and centrifuged at 12,000 RPM/3 min to collect plasma. The plasma was frozen and stored at −80° C. until analysis, and all animals of a pharmacokinetic experiment group were euthanized after completing the blood collection.
580 μl of acetonitrile (including internal standard) was added to 20 μl of plasma/tissue, and centrifugation was performed at 4° C. at 15,000 rpm for 5 minutes with vortexing. A supernatant obtained after the centrifugation was analyzed with LC-MS/MS.
PK parameter was calculated as a non-compartmental analysis model, using a phoenix WinNonlin 6.4 version (Pharsight, USA) program.

[2] = iv, 5 mg/kg, intravenous 5 mg/kg, read-out: Drug concentration in plasma, Average
[3] = iv, 5 mg/kg, intravenous 5 mg/kg, read-out: Drug concentration in plasma, Individual
[4] = po, 25 mg/kg, oral 25 mg/kg, read-out: Drug concentration in plasma, Average

**Q.** Which “cell viability inhibition effect (normalized MTS value)” value (HOG-GSC cells) does the source give for `CC(C)(C)c1ccc(-c2cc(/C=C3\SC(=O)NC3=O)ccn2)cc1` [Compound 11, (Z)-5-((2-(4-(tert-butyl)phenyl)pyridin-4-yl)methylene)thiazolidine-2,4-dione] here?
**A.** The value was “significant cell viability inhibition effect”.

**Q.** What about the “cell viability of HOG-GSC compared with DMSO control” value (HOG-GSC) of the same compound?
**A.** The value was “significantly decreased”.

**Q.** And the “concentration dependence of HOG-GSC cell viability” value (HOG-GSC)?
**A.** The value was “decreased in proportion to the concentration”.

**Q.** And the concentration at 0.08 h [1, 2]?
**A.** Its concentration at 0.08 h is 2560 ng/mL.

**Q.** And the concentration at 0.08 h [1, 3]?
**A.** The concentration at 0.08 h was 2820 ng/mL.

**Q.** And the concentration at 0.25 h [1, 2]?
**A.** The concentration at 0.25 h was 2540 ng/mL.

**Q.** What about the concentration at 0.25 h [1, 3] of the same compound?
**A.** Its concentration at 0.25 h is 2600 ng/mL.

**Q.** What about the concentration at 0.5 h [1, 2] of the same compound?
**A.** Its concentration at 0.5 h is 2260 ng/mL.

**Q.** And the concentration at 0.5 h [1, 3]?
**A.** Its concentration at 0.5 h is 2790 ng/mL.

**Q.** What about the concentration at 1 h [1, 2] of the same compound?
**A.** The concentration at 1 h was 2100 ng/mL.

**Q.** And the concentration at 1 h [1, 3]?
**A.** Its concentration at 1 h is 2590 ng/mL.

**Q.** And the concentration at 2 hr ([1]; iv, 5 mg/kg, intravenous 5 mg/kg, 2 hr, read-out: Drug concentration in plasma, Average)?
**A.** The concentration at 2 hr was 1570 ng/mL.

**Q.** And the concentration at 2 hr ([1]; iv, 5 mg/kg, intravenous 5 mg/kg, 2 hr, read-out: Drug concentration in plasma, Individual)?
**A.** The concentration at 2 hr was 1130 ng/mL.

**Q.** What about the concentration at 4 h [1, 2] of the same compound?
**A.** Its concentration at 4 h is 1280 ng/mL.

**Q.** What about the concentration at 4 h [1, 3] of the same compound?
**A.** The concentration at 4 h was 1050 ng/mL.

**Q.** And the concentration at 6 h ([1]; iv, 5 mg/kg, intravenous 5 mg/kg)?
**A.** Its concentration at 6 h is 652 ng/mL.

**Q.** What about the concentration at 8 h [1, 2] of the same compound?
**A.** The concentration at 8 h was 575 ng/mL.

**Q.** And the concentration at 8 h [1, 3]?
**A.** Its concentration at 8 h is 424 ng/mL.

**Q.** What about the concentration at 24 h ([1]; iv, 5 mg/kg, intravenous 5 mg/kg, BQL = <1 ng/ml, ND = not detectable, read-out: Drug concentration in plasma, Individual) of the same compound?
**A.** The concentration at 24 h was 1.9 ng/mL.

**Q.** And the concentration at 24 h [1, 2]?
**A.** The concentration at 24 h was 1.8 ng/mL.

**Q.** What about the concentration at 0.25 h [1, 4] of the same compound?
**A.** Its concentration at 0.25 h is 2910 ng/mL.

**Q.** What about the concentration at 0.5 h [1, 4] of the same compound?
**A.** Its concentration at 0.5 h is 4420 ng/mL.

**Q.** And the concentration at 1 h [1, 4]?
**A.** The concentration at 1 h was 3770 ng/mL.

**Q.** And the concentration at 2 h ([1]; po, 25 mg/kg, oral 25 mg/kg, 2 hr)?
**A.** Its concentration at 2 h is 3870 ng/mL.

**Q.** And the concentration at 4 h [1, 4]?
**A.** Its concentration at 4 h is 3540 ng/mL.

**Q.** What about the concentration at 6 h ([1]; po, 25 mg/kg, oral 25 mg/kg) of the same compound?
**A.** The concentration at 6 h was 5440 ng/mL.

**Q.** And the concentration at 8 h [1, 4]?
**A.** The concentration at 8 h was 5020 ng/mL.
